Data published in patent US6436980B1, “Peptidomimetic efflux pump inhibitors” (priority 1998, dated 2002).

Test system: Pseudomonas aeruginosa PAM1001
Assay: Checkerboard assay (broth microdilution): levofloxacin MIC in presence of efflux pump inhibitor
Assay type: cell-based
Description: Potentiation effect is observed by the reduction of the minimum inhibitory concentration of levofloxacin in the presence of the experimental efflux pump inhibitor. The activity of efflux pump inhibitors (EPI) in combination with fluoroquinolones, such as levofloxacin, is assessed by the checkerboard assay (Antimicrobial Combinations. In Antibiotics in Laboratory Medicine, Ed. Victor Lorian, M.D., Fourth edition, 1996, pp 333-338) using broth microdilution method performed as recommended by the NCCLS (National Committee for Clinical Laboratory Standards (NCCLS). 1997. Methods for Dilution of Antimicrobial Susceptibility Tests for Bacteria That Grow Aerobically—Fourth Edition; Approved Standard. NCCLS Document M7-A4, Vol 17 No.2). The test organism used is Pseudomonas aeruginosa PAM1001. […] The compounds tabulated below are representative of the described invention.
In this assay, multiple dilutions of two drugs, namely the EPI and levofloxacin, are being tested, alone and in combination, at concentrations equal to, above and below their respective minimal inhibitory concentrations (MICs). In the case of EPI, most of these compounds are devoid of intrinsic antimicrobial activity and are tested at the maximum concentration of 40 μg/mL. The MIC of levofloxacin against P. aeruginosa PAM1001 is 4 μg/mL.
The EPI tested are readily soluble in water and stock solutions are prepared at a final concentration of 2 mg/mL. Stock solutions are further diluted, according to the needs of a particular assay, in Mueller Hinton Broth (MHB). Stock solution can be stored at −80° C. Quinolones are solubilized according to the instructions of the manufacturers, at a concentration of 1 mg/mL. They are then further diluted in MB. Stock solution can be stored at −80° C.
The checkerboard assay is performed in microtiter plates. Levofloxacin is diluted in the x axis, each column containing a single concentration of levofloxacin. The EPI is diluted in the y axis, each row containing an equal concentration of EPI. The result of these manipulations is that each well of the microtiter plate contains a unique combination of concentrations of the two agents. Each EPI are tested independently.
The assay is performed in MHB with a final bacterial inoculum of 5×10^5 CFU/mL (from an early-log phase culture). Microtiter plates are incubated during 20 h at 35° C. and are read using a microtiterplate reader (Molecular Devices) at 650 nm as well as visual observation using a microtiter plate reading mirror.

SMILES | Levofloxacin MIC Against P. aeruginosa PAM1001 in Presence of Efflux Pump Inhibitor (EPI), Minimum Inhibitory Concentration (EPI Conc. 0 μg/mL (levofloxacin alone)) [µg/mL] | Levofloxacin MIC Against P. aeruginosa PAM1001 in Presence of Efflux Pump Inhibitor (EPI), Minimum Inhibitory Concentration (EPI Conc. 0.625 μg/mL) [µg/mL] | Levofloxacin MIC Against P. aeruginosa PAM1001 in Presence of Efflux Pump Inhibitor (EPI), Minimum Inhibitory Concentration (EPI Conc. 1.25 μg/mL) [µg/mL] | Levofloxacin MIC Against P. aeruginosa PAM1001 in Presence of Efflux Pump Inhibitor (EPI), Minimum Inhibitory Concentration (EPI Conc. 2.5 μg/mL) [µg/mL] | Levofloxacin MIC Against P. aeruginosa PAM1001 in Presence of Efflux Pump Inhibitor (EPI), Minimum Inhibitory Concentration (EPI Conc. 5 μg/mL) [µg/mL] | Levofloxacin MIC Against P. aeruginosa PAM1001 in Presence of Efflux Pump Inhibitor (EPI), Minimum Inhibitory Concentration (EPI Conc. 10 μg/mL) [µg/mL] | Levofloxacin MIC Against P. aeruginosa PAM1001 in Presence of Efflux Pump Inhibitor (EPI), Minimum Inhibitory Concentration (EPI Conc. 20 μg/mL) [µg/mL] | Levofloxacin MIC Against P. aeruginosa PAM1001 in Presence of Efflux Pump Inhibitor (EPI), Minimum Inhibitory Concentration (EPI Conc. 40 μg/mL) [µg/mL] | MIC (Pseudomonas aeruginosa, PAM1001, read-out: MIC of levofloxacin against P. aeruginosa PAM1001) [µg/mL]
NCCC[C@@H](N)C(=O)N[C@H](CCc1ccccc1)C(O)c1nc2ncccc2o1.O=C(O)C(F)(F)F (mixture of isomers) [Compound 36, (2R)-2,5-Diamino-N-[(1R)-1-[(RS)-(1-oxazolo[4,5-b]pyridin-2-yl)-hydroxymethyl]-3-phenylpropyl]valeramide Trifluoroacetate] | 4 | 4 | 4 | 4 | 4 | 4 | 2 | 2 | –
C[C@H]1COc2c(N3CCN(C)CC3)c(F)cc3c(=O)c(C(=O)O)cn1c23 [levofloxacin, reference compound] | – | – | – | – | – | – | – | – | 4
